Publication PMC12040969, “Design, synthesis, in silico studies, and apoptotic antiproliferative activity of novel thiazole-2-acetamide derivatives as tubulin polymerization inhibitors” (Frontiers in Chemistry, 2025)

What was measured:
[1] = test system: four human cancer cell lines (HCT-116, PC-3, MCF-7, MDAMB-231); assay: Antiproliferative assay, mean of four cell lines (GI50); conditions: for Reduced potency compared to doxorubicin (GI50) / Reduced potency compared to sorafenib (GI50): GI50 ratio; for IC50: Homo sapiens, read-out: GI50 (average IC50)
colon - HCT-116 = assay: Antiproliferative assay (MTT) HCT-116; conditions: for IC50: read-out: Antiproliferative activity IC50 ± SEM (µM) HCT-116, HCT-116, MTT
- MDAMB-231 = assay: Antiproliferative assay (MTT) MDAMB-231
pancreatic - MDAMB-231 = assay: Antiproliferative assay (MTT) MDAMB-231; conditions: read-out: Antiproliferative activity IC50 ± SEM (µM) MDAMB-231; MDAMB-231, MTT
breast - MCF-7 = assay: Antiproliferative assay (MTT) MCF-7; conditions: for IC50: read-out: Antiproliferative activity IC50 ± SEM (µM) MCF-7, MCF-7, MTT
[2] = Cell viability assay (MTT), normal cells; type: cell-based; conditions: human, MCF-10A normal mammary gland epithelial cells, four-day incubation
Description: The impact of novel compounds 10a-o and 13a-e on cell viability was examined using the MCF-10A (human mammary gland epithelial) normal cell line. The MTT test was employed to assess the cell viability of the novel compounds after a four-day incubation with MCF-10A cells ([El-Sherief et al., 2019]; [Ramadan et al., 2020]).
The effects of compounds 10a-o and 13a-e on cell viability were assessed using the human mammary gland epithelial normal cell line (MCF-10A). The MTT assay assessed the cell viability of compounds 10a-o and 13a-e following a four-day incubation with MCF-10A cells ([El-Sherief et al., 2019]; [Ramadan et al., 2020]). Check Supplementary Appendix A for additional information.
4.2. Biological evaluation
4.2.1 Cell Viability assay (MTT assay)
MTT assay was performed to investigate the effect of the synthesized compounds on mammary epithelial cells (MCF-10A). The cells were propagated in medium consisting of Ham's F-12 medium/ Dulbecco's modified Eagle's medium (DMEM) (1:1) supplemented with 10% foetal calf serum, 2 mM glutamine, insulin (10 μg/mL), hydrocortisone (500 ng/mL) and epidermal growth factor (20 ng/mL). Trypsin ethylenediamine tetra acetic acid (EDTA) was used to passage the cells after every 2-3 days. 96-well flat-bottomed cell culture plates were used to seed the cells at a density of 10^4 cells mL-1. The medium was aspirated from all the wells of culture plates after 24 h followed by the addition of synthesized compounds (in 200 μL medium to yield a final concentration of 0.1% (v/v) dimethyl sulfoxide) into individual wells of the plates.
Four wells were designated to a single compound. The plates were allowed to incubate at 37°C for 96 h. Afterwards, the medium was aspirated and 3-[4,5-dimethylthiazol-2-yl]-2,5-diphenyltetrazolium bromide (MTT) (0.4 mg/mL) in medium was added to each well and subsequently incubated for 3 h. The medium was aspirated and 150 μL dimethyl sulfoxide (DMSO) was added to each well. The plates were vortexed followed by the measurement of absorbance at 540 nm on a microplate reader. The results were presented as inhibition (%) of proliferation in contrast to controls comprising 0.1%

tubulin = assay: Tubulin polymerization inhibition assay (Cytoskeleton kit);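 for all read-outs here: Cell-free tubulin polymerization read by fluorescent reporter enhancement over a 30 min reaction, with the compound-free kit control taken as 100% activity and inhibition relative to it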; conditions: for Tub %inh / Tub. enzyme inhibition assay %inhibition: 30 min; for Tub %inh: YB-EGY run; for Tub K.Activity: EC = 120, YB-EGY run; for IC50: read-out: Tubulin inhibition IC50 ± SEM, triplicate for each tested concentration; for Tub. enzyme inhibition assay %inhibition: codes 522-537 run; for Tub. enzyme inhibition assay K. Activity: control = 120, codes 522-537 run
prostatic - PC-3 = assay: Antiproliferative assay (MTT) PC-3; conditions: for IC50: read-out: Antiproliferative activity IC50 ± SEM (µM) PC-3, PC-3, MTT

## Cc1ccc(/C=C/C(=O)c2sc(SCC(=O)Nc3nc(-c4ccccc4)cs3)nc2C)cc1 [Compound 10d, (E)-2-((4-methyl-5-(3-(p-tolyl)acryloyl)thiazol-2-yl)thio)-N-(4-phenylthiazol-2-yl)acetamide]
[1]
  Reduced potency compared to doxorubicin (GI50): at least 2.5 fold
  Reduced potency compared to sorafenib (GI50): ≥ 1.5 fold
  IC50: 13 µM
Colon - HCT-116; HCT-116, 1.56 µM
  Average of Relative viability of cells (%): 100%
Colon - HCT-116; HCT-116, 3.125 µM
  Average of Relative viability of cells (%): 91.5%
Colon - HCT-116; HCT-116, 6.25 µM
  Average of Relative viability of cells (%): 73.6%
Colon - HCT-116; HCT-116, 12.5 µM
  Average of Relative viability of cells (%): 50.2%
Colon - HCT-116; HCT-116, 25 µM
  Average of Relative viability of cells (%): 41.9%
Colon - HCT-116; HCT-116, 50 µM
  Average of Relative viability of cells (%): 29.7%
Colon - HCT-116; HCT-116, 100 µM
  Average of Relative viability of cells (%): 22.4%
Colon - HCT-116
  IC50: 19 ± 1.5 µM
- MDAMB-231; MDAMB-231, 1.56 µM
  Average of Relative viability of cells (%): 89.2%
- MDAMB-231; MDAMB-231, 3.125 µM
  Average of Relative viability of cells (%): 69.3%
- MDAMB-231; MDAMB-231, 6.25 µM
  Average of Relative viability of cells (%): 60.4%
- MDAMB-231; MDAMB-231, 12.5 µM
  Average of Relative viability of cells (%): 31.6%
- MDAMB-231; MDAMB-231, 25 µM
  Average of Relative viability of cells (%): 25.8%
- MDAMB-231; MDAMB-231, 50 µM
  Average of Relative viability of cells (%): 16.9%
- MDAMB-231; MDAMB-231, 100 µM
  Average of Relative viability of cells (%): 13.9%
Pancreatic - MDAMB-231
  IC50: 8 ± 0.7 µM
Breast - MCF-7; MCF-7, 1.56 µM
  Average of Relative viability of cells (%): 97.5%
Breast - MCF-7; MCF-7, 3.125 µM
  Average of Relative viability of cells (%): 84.1%
Breast - MCF-7; MCF-7, 6.25 µM
  Average of Relative viability of cells (%): 57.3%
Breast - MCF-7; MCF-7, 12.5 µM
  Average of Relative viability of cells (%): 39.2%
Breast - MCF-7; MCF-7, 25 µM
  Average of Relative viability of cells (%): 22.6%
Breast - MCF-7; MCF-7, 50 µM
  Average of Relative viability of cells (%): 20.4%
Breast - MCF-7; MCF-7, 100 µM
  Average of Relative viability of cells (%): 8.1%
Breast - MCF-7
  IC50: 10 ± 0.8 µM
[2]
  viability at 96 h, 50 µM: 90%
tubulin; conc 0.1 (unit not given)
  Tub %inh: 17.5%
  Tub K.Activity: 98.945
tubulin; conc 1 (unit not given)
  Tub %inh: 26.6%
  Tub K.Activity: 88.129
tubulin; conc 10 (unit not given)
  Tub %inh: 45.2%
  Tub K.Activity: 65.722
tubulin; conc 50 (unit not given)
  Tub %inh: 71.7%
  Tub K.Activity: 33.903
tubulin; conc 100 (unit not given)
  Tub %inh: 91.1%
  Tub K.Activity: 10.641
tubulin
  IC50: 5.26 ± 0.16 µM
Prostatic - PC-3; PC-3, 1.56 µM
  Average of Relative viability of cells (%): 100%
Prostatic - PC-3; PC-3, 3.125 µM
  Average of Relative viability of cells (%): 86.5%
Prostatic - PC-3; PC-3, 6.25 µM
  Average of Relative viability of cells (%): 69.6%
Prostatic - PC-3; PC-3, 12.5 µM
  Average of Relative viability of cells (%): 52.3%
Prostatic - PC-3; PC-3, 25 µM
  Average of Relative viability of cells (%): 36.4%
Prostatic - PC-3; PC-3, 50 µM
  Average of Relative viability of cells (%): 27.9%
Prostatic - PC-3; PC-3, 100 µM
  Average of Relative viability of cells (%): 18.7%
Prostatic - PC-3
  IC50: 16 ± 1.3 µM

## Cc1nc(SCC(=O)Nc2nc(-c3ccc(Cl)cc3)cs2)sc1C(=O)/C=C/c1ccccc1 [Compound 10f, (E)-N-(4-(4-chlorophenyl)thiazol-2-yl)-2-((5-cinnamoyl-4-methylthiazol-2-yl)thio) acetamide]
[1]
  Reduced potency compared to doxorubicin (GI50): at least 2.5 fold
  Reduced potency compared to sorafenib (GI50): ≥ 1.5 fold
  IC50: 18 µM
Colon - HCT-116; HCT-116, 1.56 µM
  Average of Relative viability of cells (%): 100%
Colon - HCT-116; HCT-116, 3.125 µM
  Average of Relative viability of cells (%): 90.2%
Colon - HCT-116; HCT-116, 6.25 µM
  Average of Relative viability of cells (%): 71.1%
Colon - HCT-116; HCT-116, 12.5 µM
  Average of Relative viability of cells (%): 63.4%
Colon - HCT-116; HCT-116, 25 µM
  Average of Relative viability of cells (%): 50.5%
Colon - HCT-116; HCT-116, 50 µM
  Average of Relative viability of cells (%): 35.7%
Colon - HCT-116; HCT-116, 100 µM
  Average of Relative viability of cells (%): 23.6%
Colon - HCT-116
  IC50: 25 ± 1.8 µM
- MDAMB-231; MDAMB-231, 1.56 µM
  Average of Relative viability of cells (%): 96.1%
- MDAMB-231; MDAMB-231, 3.125 µM
  Average of Relative viability of cells (%): 79.5%
- MDAMB-231; MDAMB-231, 6.25 µM
  Average of Relative viability of cells (%): 63.2%
- MDAMB-231; MDAMB-231, 12.5 µM
  Average of Relative viability of cells (%): 38.7%
- MDAMB-231; MDAMB-231, 25 µM
  Average of Relative viability of cells (%): 27.4%
- MDAMB-231; MDAMB-231, 50 µM
  Average of Relative viability of cells (%): 17.8%
- MDAMB-231; MDAMB-231, 100 µM
  Average of Relative viability of cells (%): 14.3%
Pancreatic - MDAMB-231
  IC50: 10 ± 0.9 µM
Breast - MCF-7; MCF-7, 1.56 µM
  Average of Relative viability of cells (%): 100%
Breast - MCF-7; MCF-7, 3.125 µM
  Average of Relative viability of cells (%): 84.7%
Breast - MCF-7; MCF-7, 6.25 µM
  Average of Relative viability of cells (%): 68.3%
Breast - MCF-7; MCF-7, 12.5 µM
  Average of Relative viability of cells (%): 41.9%
Breast - MCF-7; MCF-7, 25 µM
  Average of Relative viability of cells (%): 33.5%
Breast - MCF-7; MCF-7, 50 µM
  Average of Relative viability of cells (%): 27.4%
Breast - MCF-7; MCF-7, 100 µM
  Average of Relative viability of cells (%): 19.2%
Breast - MCF-7
  IC50: 14 ± 1.1 µM
[2]
  viability at 96 h, 50 µM: 86%
tubulin; conc 0.01 (unit not given)
  Tub. enzyme inhibition assay %inhibition: 5.23%
  Tub. enzyme inhibition assay K. Activity: 113.72
tubulin; conc 0.1 (unit not given)
  Tub. enzyme inhibition assay %inhibition: 15.6%
  Tub. enzyme inhibition assay K. Activity: 101.33
tubulin; conc 1 (unit not given)
  Tub. enzyme inhibition assay %inhibition: 34.8%
  Tub. enzyme inhibition assay K. Activity: 78.182
tubulin; conc 10 (unit not given)
  Tub. enzyme inhibition assay %inhibition: 58.9%
  Tub. enzyme inhibition assay K. Activity: 49.376
tubulin; conc 100 (unit not given)
  Tub. enzyme inhibition assay %inhibition: 87.6%
  Tub. enzyme inhibition assay K. Activity: 14.884
tubulin
  IC50: 5.62 ± 0.17 µM
tubulin; supplement raw data, lab codes
  Tub. (IC50) IC50±SD: 2.88 ± 0.09 µg/mL
Prostatic - PC-3; PC-3, 1.56 µM
  Average of Relative viability of cells (%): 100%
Prostatic - PC-3; PC-3, 3.125 µM
  Average of Relative viability of cells (%): 91.8%
Prostatic - PC-3; PC-3, 6.25 µM
  Average of Relative viability of cells (%): 70.5%
Prostatic - PC-3; PC-3, 12.5 µM
  Average of Relative viability of cells (%): 58.2%
Prostatic - PC-3; PC-3, 25 µM
  Average of Relative viability of cells (%): 46.7%
Prostatic - PC-3; PC-3, 50 µM
  Average of Relative viability of cells (%): 32.3%
Prostatic - PC-3; PC-3, 100 µM
  Average of Relative viability of cells (%): 24.2%
Prostatic - PC-3
  IC50: 22 ± 1.6 µM

## COc1ccc(/C=C/C(=O)c2sc(SCC(=O)Nc3nccs3)nc2C)cc1 [Compound 13e, (E)-2-((5-(3-(4-methoxyphenyl)acryloyl)-4-methylthiazol-2-yl)thio)-N-(thiazol-2-yl)acetamide]
[2]
  viability at 96 h, 50 µM: 91%
tubulin; conc 0.1 (unit not given)
  Tub %inh: 7.07%
  Tub K.Activity: 111.52
tubulin; conc 1 (unit not given)
  Tub %inh: 16.4%
  Tub K.Activity: 100.36
tubulin; conc 10 (unit not given)
  Tub %inh: 26.3%
  Tub K.Activity: 88.403
tubulin; conc 50 (unit not given)
  Tub %inh: 41.7%
  Tub K.Activity: 69.965
tubulin; conc 100 (unit not given)
  Tub %inh: 75.9%
  Tub K.Activity: 28.968
tubulin
  IC50: 39.9 ± 1.22 µM

## COc1cccc2c1C(=O)c1c(O)c3c(c(O)c1C2=O)C[C@@](O)(C(=O)CO)C[C@@H]3O[C@H]1C[C@H](N)[C@H](O)[C@H](C)O1 [Doxorubicin, reference compound]
[1]
  IC50: 5 µM
Colon - HCT-116
  IC50: 5 ± 0.3 µM
Pancreatic - MDAMB-231
  IC50: 3 ± 0.1 µM
Breast - MCF-7
  IC50: 4 ± 0.2 µM
Prostatic - PC-3
  IC50: 9 ± 0.6 µM

## CNC(=O)c1cc(Oc2ccc(NC(=O)Nc3ccc(Cl)c(C(F)(F)F)c3)cc2)ccn1 [Sorafenib, reference compound]
[1]
  IC50: 8 µM
Colon - HCT-116
  IC50: 6 ± 0.3 µM
Pancreatic - MDAMB-231
  IC50: 8 ± 0.4 µM
Breast - MCF-7
  IC50: 7 ± 0.3 µM
Prostatic - PC-3
  IC50: 12 ± 0.9 µM
